Values joined by “and” are separate entries in the source; they are usually repeats but may differ in a detail not shown here. Equal entries are not always repeated.
What was measured:
[1] = tested on: Rat primary motor neurons; assay: Axon extension of rat primary motor neurons; assay type: cell-based; settings: 72 hrs; read-out: EC50 (cells extending axons)
Protocol: Rat primary motor neurons were isolated from embryonic spinal cords in accordance with the method of Henderson et al.; J Cohen and G P Wilkin (ed.), Neural Cell Culture, (1995) p69-81 which is herein incorporated by reference in its entirety. Briefly, spinal cords were dissected from day 15 embryo (E15) and incubated in a trypsin solution, and followed by DNase treatment to release spinal cord cells from tissue fragments. The cell suspension was centrifuged to remove tissue fragments. Then motor neurons were enriched by density gradient centrifugation.
Motor neurons were cultured in serum-free neurobasal medium containing insulin, forskolin, 3-isobutyl-1-methylxanthine, neurotrophic factors, Bovine serum albumin, selenium, transferrin, putrescine, progesterone and B27 supplement in tissue culture plate coated with poly-ornithine and laminin.
Rat primary motor neurons were prepared and cultured as described in Example 13. […] The cells extending axons were counted in five different fields for each treatment after 72 hrs. Percentage of positive cells relative to total cells in the same magnification field was calculated and the results were expressed as means+/−standard deviations, n=5.

SOD1 mice = assay: Survival in the SOD1 mouse model of ALS; assay type: in vivo
HSP60 = HSP60 gene expression in rat brain tissue, qRT-PCR; assay type: in vivo; settings: 12 mg/kg oral
Protocol: […] Expression of selected HSPs was detected using qRT-PCR with expression of the GAPDH gene used as the control. To represent the effect of CNS-102 on HSP expression, mean fold change is calculated as CNS-102 treated/PBS treated for each HSP at each time point.

Neuro2A cells = Neuro2A cells that extended neurites, with GGTI-298 (Example 18); assay type: cell-based; settings: 0.1-1 μM; vehicle 0.0-0.20
Source text: After differentiation was induced, cells that extended neurites were counted.

Sprague Dawley rats = assay: Kainic acid stereotactic hippocampus injection model, fraction of cells damaged; assay type: in vivo, rat; settings: for Difference of mean fraction damaged to pooled PBS / Mean fraction of cells damaged in the hippocampus: 12 mg/kg oral; for Mean fraction of cells damaged in the hippocampus: pooled PBS 0.187
[2] = tested on: Murine neuro2A neuroblastoma cells; assay: Neurite outgrowth of neuro2A cells with GGTI-298 (Example 30); assay type: cell-based, mouse
Protocol: Differentiation was induced and cells incubated with geranylgeranyl transferase I inhibitor, GGTI-298. After 24 h digital images were taken and neurite outgrowth was quantified. The comparisons of the neuroprotective effect of these three compounds are shown below.
The estimated mean log10 counts, from five replicate wells for each treatment group were calculated by PROC GLM in SAS assuming a pooled estimate of variation.
The estimated mean log 10 counts from five replicate wells for each treatment group were calculated by PROC GLM in SAS assuming a pooled estimate of variation.
Differences in mean log(counts) between treatments for each concentration were calculated using PROC GLM in SAS. The p-value given is for the comparison of the estimated difference to zero, the expected difference value for no treatment effect. The anti-log of the differences represent the estimated ratio of counts (relative effect on inhibition) and are tabulated below along with the lower and upper 95% confidence intervals.

[3] = 10 nM, CNS-101/CNS-102 experiment
[4] = 100 nM, CNS-101/CNS-102 experiment
[5] = 100 nM, CNS-102/CNS-103 experiment
[6] = 1000 nM, CNS-101/CNS-102 experiment
[7] = 1000 nM, CNS-102/CNS-103 experiment
[8] = 10000 nM, CNS-101/CNS-102 experiment

CC(=O)CC/C=C(\C)CC/C=C(\C)CC/C=C(\C)CCC=C(C)C [CNS-102]
EC50 [1]: 920 pM
Median Survival (SOD1 mice; CNS-102 12 mg/kg or riluzole 8 mg/kg daily oral from P38, vehicle 125.0): 133.0 days
% Increase in median time to death compared to vehicle group (SOD1 mice; parametric regression (gamma distribution)): 9% and 9.5%
HSP60 mean fold change (CNS-102 treated/PBS treated), mean ± SD (HSP60; 24 h): 1.26 ± 0.07
HSP60 mean fold change (CNS-102 treated/PBS treated), mean ± SD (HSP60; 48 h): 0.89 ± 0.08
HSP60 mean fold change (CNS-102 treated/PBS treated), mean ± SD (HSP60; 72 h): 1.72 ± 0.07
HSP60 mean fold change (CNS-102 treated/PBS treated), mean ± SD (HSP60; 96 h): 1.57 ± 0.16
Mean of cell numbers (cells that extended neurites) (Neuro2A cells): 0.45-0.65 Arbitrary units
Difference of mean fraction damaged to pooled PBS (Sprague Dawley rats; KA at 24 hours): 0.005
Difference of mean fraction damaged to pooled PBS (Sprague Dawley rats; KA at 48 hours): −0.064
Difference of mean fraction damaged to pooled PBS (Sprague Dawley rats; KA at 72 hours): −0.092
Difference of mean fraction damaged to pooled PBS (Sprague Dawley rats; KA at 96 hours): −0.056
Difference of mean fraction damaged to pooled PBS (Sprague Dawley rats; KA at 168 hours): −0.026
Mean fraction of cells damaged in the hippocampus (Sprague Dawley rats; KA injected at 24 hours): 0.193
Mean fraction of cells damaged in the hippocampus (Sprague Dawley rats; KA injected at 48 hours): 0.123
Mean fraction of cells damaged in the hippocampus (Sprague Dawley rats; KA injected at 72 hours): 0.096
Mean fraction of cells damaged in the hippocampus (Sprague Dawley rats; KA injected at 96 hours): 0.131
Mean fraction of cells damaged in the hippocampus (Sprague Dawley rats; KA injected at 168 hours): 0.162
Mean of Hippocampus CA3 Neurons Damaged (Sprague Dawley rats; 24 mg/Kg rat oral, KA at 72 hours): 19.8182 Arbitrary units
minimal effective dose (Sprague Dawley rats; one dose of 0, 1, 3, 6, 12 or 24 mg/kg, kainic acid model): 12 mg/kg
timepoint of maximal protection effect (Sprague Dawley rats; single dose of 12 mg/kg): 72 h
Ratio % of neurite outgrowth, CNS-102 to CNS-101 ([2]; 10 nM): 113.6%
Protection % [2, 3]: 16.6%
Median Counts (cells with neurite outgrowth) ([2]; 10 nM, CNS-101/CNS-102 experiment, no inhibition 95.5, PBS 21.5): 33.8
ratio of counts relative to no inhibition [2, 3]: 0.354
Ratio % of neurite outgrowth, CNS-102 to CNS-101 ([2]; 100 nM): 112.1%
Ratio % of neurite outgrowth, CNS-102 to CNS-103 ([2]; 100 nM): 114.3%
Protection % [2, 4]: 29.6%
Median Counts (cells with neurite outgrowth) ([2]; 100 nM, CNS-101/CNS-102 experiment, no inhibition 95.5, PBS 21.5): 43.4
ratio of counts relative to no inhibition [2, 4]: 0.454
Protection % [2, 5]: 35.9%
Median Counts (cells with neurite outgrowth) ([2]; 100 nM, CNS-102/CNS-103 experiment, no inhibition 60.3, PBS 18.5): 33.5
ratio of counts relative to no inhibition [2, 5]: 0.556
Ratio % of neurite outgrowth, CNS-102 to CNS-101 ([2]; 1000 nM): 122.7%
Ratio % of neurite outgrowth, CNS-102 to CNS-103 ([2]; 1000 nM): 83.0%
Protection % [2, 6]: 39.9%
Median Counts (cells with neurite outgrowth) ([2]; 1000 nM, CNS-101/CNS-102 experiment, no inhibition 95.5, PBS 21.5): 51.0
ratio of counts relative to no inhibition [2, 6]: 0.534
Protection % [2, 7]: 12.7%
Median Counts (cells with neurite outgrowth) ([2]; 1000 nM, CNS-102/CNS-103 experiment, no inhibition 60.3, PBS 18.5): 23.8
ratio of counts relative to no inhibition [2, 7]: 0.395
Ratio % of neurite outgrowth, CNS-102 to CNS-101 ([2]; 10000 nM): 137.8%
Protection % [2, 8]: 22.6%
Median Counts (cells with neurite outgrowth) ([2]; 10000 nM, CNS-101/CNS-102 experiment, no inhibition 95.5, PBS 21.5): 38.2
ratio of counts relative to no inhibition [2, 8]: 0.400
maximum protection ([2]; CNS-101/CNS-102 experiment (FIG. 4A)): ~40%
maximum protection ([2]; CNS-102/CNS-103 experiment (FIG. 4B)): ~36%

Reference: US20150025077A1 (COYOTE PHARMACEUTICALS, INC., priority 2012, published 2015)
